Test results as given in patent publication US8735411B2, “Macrocyclic benzofused pyrimidine derivatives” (AbbVie Inc., priority 2006, dated 2014).

Target: histamine H4 receptor (Homo sapiens, UniProt Q9H3N8)
Test: In vitro histamine H4 potency in FLIPR (Ca2+ flux, HEK-293 cells coexpressing Gαqi5)
Type: cell-based
Parameters: expressed in transfected cells
Conditions: Kb for antagonists and inverse agonists, EC50 for partial agonists
Source text: There are many methods available to show the effectiveness of compounds as histamine H4 receptor ligands. Histamine H4 receptors from mammalian species have been cloned. Methods to clone, express, and assess the potency and functional activity of such cloned genes are well known to those skilled in the art of molecular biology. […] Before testing, cells are loaded with a Ca^+2 sensitive fluorescent dye, in this case Fluo-4. In the case of partial agonist or agonist ligands, addition of compound to the cells leads to the increase in intracellular Ca^+2 which is detected by FLIPR (Fluorescence Imaging Plate Reader; Molecular Devices, Sunnyvale, Calif.) technology. […] The fluorescence intensities measured before addition of the test compound are subtracted from the fluorescence intensities at later time points. Peak response values determined at each concentration of ligand are expressed as a percentage of the response obtained with the full agonist histamine. Concentration versus response data are analyzed to obtain compound potency as Kb values for antagonists and inverse agonists and as EC50 values for partial agonists.

Chain of histamine H4 receptor (Q9H3N8 whole entry): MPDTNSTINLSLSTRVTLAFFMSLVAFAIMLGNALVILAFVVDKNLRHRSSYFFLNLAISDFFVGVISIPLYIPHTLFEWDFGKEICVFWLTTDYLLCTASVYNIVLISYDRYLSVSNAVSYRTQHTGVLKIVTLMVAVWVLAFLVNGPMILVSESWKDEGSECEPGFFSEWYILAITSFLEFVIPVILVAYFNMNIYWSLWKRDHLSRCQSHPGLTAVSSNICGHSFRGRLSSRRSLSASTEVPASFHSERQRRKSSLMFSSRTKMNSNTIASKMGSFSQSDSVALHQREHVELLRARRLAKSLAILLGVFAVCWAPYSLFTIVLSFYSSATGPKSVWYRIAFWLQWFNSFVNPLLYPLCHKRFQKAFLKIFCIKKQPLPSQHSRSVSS

| Structure (SMILES) | Potency [nM] |
| --- | --- |
| CNc1nc2c(c(N3CCNCC3)n1)CCCc1ccccc1-2 [Example 123, Methyl-(4-piperazin-1-yl-6,7-dihydro-5H-benzo[6,7]cyclohepta[1,2-d]pyrimidin-2-yl)-amine] | 1622 |
| Nc1nc2c(c(N3CC[C@@H]4CNC[C@@H]43)n1)CCCc1ccccc1-2 [Example 19, 4-((3aR,6aR)-Hexahydro-pyrrolo[3,4-b]pyrrol-1-yl)-6,7-dihydro-5H-benzo[6,7]cyclohepta[1,2-d]pyrimidin-2-ylamine] | 603 |
| c1ccc2c(c1)CCCc1c-2ncnc1N1CCNCC1 [Example 118, 4-Piperazin-1-yl-6,7-dihydro-5H-benzo[6,7]cyclohepta[1,2-d]pyrimidine] | 138 |
| Nc1nc2c(c(N3C[C@@H]4C[C@H]3CN4)n1)CCCc1ccccc1-2 [Example 17, 4-((1S,4S)-2,5-Diaza-bicyclo[2.2.1]hept-2-yl)-6,7-dihydro-5H-benzo[6,7]cyclohepta[1,2-d]pyrimidin-2-ylamine] | 912 |
| CN[C@@H]1CCN(c2nc(N)nc3c2CCOc2c(C)cccc2-3)C1 [Example 52, 8-Methyl-4-((R)-3-methylamino-pyrrolidin-1-yl)-5,6-dihydro-7-oxa-1,3-diaza-dibenzo[a,c]cyclohepten-2-ylamine] | 56 |
| Nc1nc2c(c(N3CCNCC3)n1)CCOc1cc(I)ccc1-2 [Example 101, 9-Iodo-4-piperazin-1-yl-5,6-dihydro-7-oxa-1,3-diaza-dibenzo[a,c]cyclohepten-2-ylamine] | 269 |
| CNC1CN(c2nc(N)nc3c2CCSc2ccccc2-3)C1 [Example 33, 4-(3-Methylamino-azetidin-1-yl)-5,6-dihydro-7-thia-1,3-diaza-dibenzo[a,c]cyclohepten-2-ylamine] | 13 |
| NCCCC(=O)Nc1nc2c(c(N3CCNCC3)n1)CCCc1ccccc1-2 [Example 91, 4-Amino-N-(4-piperazin-1-yl-6,7-dihydro-5H-benzo[6,7]cyclohepta[1,2-d]pyrimidin-2-yl)-butyramide] | 550 |
| Nc1nc2c(c(N3CC[C@@H]4CNC[C@@H]43)n1)CCCCc1ccccc1-2 [Example 58, 4-[(3aR,6aR)-hexahydropyrrolo[3,4-b]pyrrol-1(2H)-yl]-5,6,7,8-tetrahydrobenzo[7,8]cycloocta[1,2-d]pyrimidin-2-amine] | 182 |
| CNC1CN(c2nc(N)nc3c2CCOc2ccccc2-3)C1 [Example 32, 4-(3-Methylamino-azetidin-1-yl)-5,6-dihydro-7-oxa-1,3-diaza-dibenzo[a,c]cyclohepten-2-ylamine] | 8.7 |
| c1ccc2c(c1)CCCc1c-2nc(NCCc2c[nH]cn2)nc1N1CC2CCCNC2C1 (stereo not drawn) [Example 127, 6-(2-(1H-imidazol-4-yl)ethylamino-6,7-dihydro-5H-benzo[6,7]cyclohepta[1,2-d]pyrimidin-4-yl)octahydro-1H-pyrrolo[3,4-b]pyridine] | 933 |
| CN1CCN(c2nc(N)nc3c2CCc2ccccc2-3)CC1 [Example 42, 4-(4-Methyl-piperazin-1-yl)-5,6-dihydro-benzo[h]quinazolin-2-ylamine] | 13 |
| CNC1CN(c2nc(N)nc3c2CCS(=O)(=O)c2ccccc2-3)C1 [Example 38, 4-(3-Methylamino-azetidin-1-yl)-7,7-dioxo-6,7-dihydro-5H-7λ6-thia-1,3-diaza-dibenzo[a,c]cyclohepten-2-ylamine] | 5754 |
| CNC1CN(c2nc(N)nc3c2COc2ccccc2-3)C1 [Example 8, 1-(3-Methylamino-azetidin-1-yl)-10H-9-oxa-2,4-diaza-phenanthren-3-ylamine] | 33 |
| Nc1nc2c(c(N3CCN4CCCC4C3)n1)CCCc1ccccc1-2 (stereo not drawn) [Example 80, 4-(Octahydro-pyrrolo[1,2-a]pyrazin-2-yl)-6,7-dihydro-5H-benzo[6,7]cyclohepta[1,2-d]pyrimidin-2-ylamine] | 178 |
| Nc1nc2c(c(N3CC4CCCNC4C3)n1)CCSc1ccccc1-2 (stereo not drawn) [Example 96, 4-(Octahydro-pyrrolo[3,4-b]pyridin-6-yl)-5,6-dihydro-7-thia-1,3-diaza-dibenzo[a,c]cyclohepten-2-ylamine] | 19 |
| CNC1CN(c2nc(N)nc3c2CCc2ccccc2-3)C1 [Example 40, 4-(3-Methylamino-azetidin-1-yl)-5,6-dihydro-benzo[h]quinazolin-2-ylamine] | 34 |
| Nc1nc(O[C@H]2CCNC2)c2c(n1)-c1ccccc1CCC2 [Example 73, 4-((S)-Pyrrolidin-3-yloxy)-6,7-dihydro-5H-benzo[6,7]cyclohepta[1,2-d]pyrimidin-2-ylamine] | 468 |

| Structure (SMILES) | Potency [nM] |
| --- | --- |
| CN1CC[C@@H](Oc2nc(N)nc3c2CCCc2ccccc2-3)C1 [Example 70, 4-((R)-1-Methyl-pyrrolidin-3-yloxy)-6,7-dihydro-5H-benzo[6,7]cyclohepta[1,2-d]pyrimidin-2-ylamine] | 37 |
| NCC(=O)Nc1nc2c(c(N3CCNCC3)n1)CCCc1ccccc1-2 [Example 89, 2-Amino-N-(4-piperazin-1-yl-6,7-dihydro-5H-benzo[6,7]cyclohepta[1,2-d]pyrimidin-2-yl)-acetamide] | 89 |
| CN[C@@H]1CCN(c2nc(N)nc3c2CCOc2c(OC)cccc2-3)C1 [Example 53, 8-methoxy-4-[(3R)-3-(methylamino)pyrrolidin-1-yl]-5,6-dihydro[1]benzoxepino[5,4-d]pyrimidin-2-amine] | 100 |
| Nc1nc2c(c(N3CC[C@H](N)C3)n1)CCCCc1ccccc1-2 [Example 56, 4-[(3S)-3-aminopyrrolidin-1-yl]-5,6,7,8-tetrahydrobenzo[7,8]cycloocta[1,2-d]pyrimidin-2-amine] | 115 |
| c1ccc2c(c1)CCCc1c-2nc(N2CCNCC2)nc1N1CCNCC1 [Example 103, 2,4-Di-piperazin-1-yl-6,7-dihydro-5H-benzo[6,7]cyclohepta[1,2-d]pyrimidine] | 351 |
| Nc1nc2c(c(N3CC[C@@H](N)C3)n1)CCCCc1ccccc1-2 [Example 55, 4-[(3R)-3-aminopyrrolidin-1-yl]-5,6,7,8-tetrahydrobenzo[7,8]cycloocta[1,2-d]pyrimidin-2-amine] | 123 |
| Nc1nc2c(c(N3CC4CCCNC4C3)n1)CCOc1cc(-c3cccnc3)ccc1-2 (stereo not drawn) [Example 106, 4-Octahydro-pyrrolo[3,4-b]pyridin-6-yl-9-pyridin-3-yl-5,6-dihydro-7-oxa-1,3-diaza-dibenzo[a,c]cyclohepten-2-ylamine] | 140 |
| CNC(=O)Nc1nc2c(c(N3CCNCC3)n1)CCCc1ccccc1-2 [Example 90, 1-Methyl-3-(4-piperazin-1-yl-6,7-dihydro-5H-benzo[6,7]cyclohepta[1,2-d]pyrimidin-2-yl)-urea] | 25119 |
| Cc1cc(C)c2c(c1)-c1nc(N)nc(N3CCNCC3)c1CCC2 [Example 126, 8,10-Dimethyl-4-piperazin-1-yl-6,7-dihydro-5H-benzo[6,7]cyclohepta[1,2-d]pyrimidin-2-ylamine] | 2754 |
| Nc1nc2c(c(N3CC4CCNCC4C3)n1)CCCc1ccccc1-2 (stereo not drawn) [Example 79, 4-(Octahydro-pyrrolo[3,4-c]pyridin-2-yl)-6,7-dihydro-5H-benzo[6,7]cyclohepta[1,2-d]pyrimidin-2-ylamine] | 89 |
| Nc1nc2c(c(N3CCNCC3)n1)CCCc1cc3c(cc1-2)CCCC3 [Example 99, 4-Piperazin-1-yl-6,7,9,10,11,12-hexahydro-5H-1,3-diaza-benzo[3,4]cyclohepta[1,2b]naphthalen-2-ylamine] | 25 |
| Nc1nc2c(c(N3CCNCC3)n1)CCCc1ccc(F)cc1-2 [Example 13, 10-Fluoro-4-piperazin-1-yl-6,7-dihydro-5H-benzo[6,7]cyclohepta[1,2-d]pyrimidin-2-ylamine] | 7.2 |
| CN[C@@H]1CCN(c2nc(N)nc3c2CCCCc2ccccc2-3)C1 [Example 54, 4-[(3R)-3-(methylamino)pyrrolidin-1-yl]-5,6,7,8-tetrahydrobenzo[7,8]cycloocta[1,2-d]pyrimidin-2-amine] | 32 |
| CN(C)CC(=O)Nc1nc2c(c(N3CCNCC3)n1)CCCc1ccccc1-2 [Example 87, 2-Dimethylamino-N-(4-piperazin-1-yl-6,7-dihydro-5H-benzo[6,7]cyclohepta[1,2-d]pyrimidin-2-yl)-acetamide] | 174 |
| CN[C@@H]1CCN(c2nc(N)nc3c2CCCc2cc4c(cc2-3)CCCC4)C1 [Example 97, 4-((R)-3-Methylamino-pyrrolidin-1-yl)-6,7,9,10,11,12-hexahydro-5H-1,3-diaza-benzo[3,4]cyclohepta[1,2-b]naphthalen-2-ylamine] | 29 |
| Nc1nc2c(c(N3CC4CCCNC4C3)n1)CCCc1ccc(F)cc1-2 (stereo not drawn) [Example 115, 10-fluoro-4-octahydro-6H-pyrrolo[3,4-b]pyridin-6-yl-6,7-dihydro-5H-benzo[6,7]cyclohepta[1,2-d]pyrimidin-2-amine] | 32 |
| CN[C@@H]1CCN(c2nc(N)nc3c2CCOc2c(Cl)cccc2-3)C1 [Example 51, 8-chloro-4-[(3R)-3-(methylamino)pyrrolidin-1-yl]-5,6-dihydro[1]benzoxepino[5,4-d]pyrimidin-2-amine] | 41 |
| CC(=O)Nc1cccc2c1-c1nc(N)nc(N3CCNCC3)c1CCC2 [Example 132, N-(2-Amino-4-piperazin-1-yl-6,7-dihydro-H-benzo[6,7]cyclohepta[1,2-d]pyrimidin-11-yl)-acetamide] | 1096 |
